# Data: publication PMC7031696 (Cell chemical biology, 2019)
# Tested on: 3D7-MR4 trophozoite parasite-infected RBCs
# Assay: Metabolomic profiling (hydrophilic metabolite changes, UHPLC-MS)
# Format: cell-based, Plasmodium falciparum
compound,measurement,setting,value
CN(C)Cc1ccc(-c2cc3c(-c4ccc(CN(C)C)cc4)ccnc3[nH]2)cc1.O=C(O)C(F)(F)F [MMV022224],Log2(fold changes) adenosine,"metabolite adenosine, log2 fold change",0.0000
same,Log2(fold changes) alanine/sarcosine,"metabolite alanine/sarcosine, log2 fold change",0.0223
same,Log2(fold changes) anthranilate,"metabolite anthranilate, log2 fold change",0.0000
same,Log2(fold changes) arginine,"metabolite arginine, log2 fold change",0.0000
same,Log2(fold changes) asparagine,"metabolite asparagine, log2 fold change",0.2620
same,Log2(fold changes) aspartate,"metabolite aspartate, log2 fold change",-0.0524
same,Log2(fold changes) biotin,"metabolite biotin, log2 fold change",0.0000
same,Log2(fold changes) cCMP,"metabolite cCMP, log2 fold change",0.0000
same,Log2(fold changes) cGMP,"metabolite cGMP, log2 fold change",0.0000
same,Log2(fold changes) carnitine,"metabolite carnitine, log2 fold change",0.0000
same,Log2(fold changes) citrate/isocitrate,"metabolite citrate/isocitrate, log2 fold change",-0.2505
same,Log2(fold change) of coenzyme A,metabolite coenzyme A,-0.6694
same,Log2(fold change) of cyclic-AMP,metabolite cyclic-AMP,0.0000
same,Log2(fold change) of cytidine,metabolite cytidine,0.1493
same,Log2(fold change) of dAMP,metabolite dAMP,0.0000
same,Log2(fold change) of dATP,metabolite dATP,-0.1042
same,Log2(fold change) of dCDP,metabolite dCDP,-0.6243
same,Log2(fold change) of dCMP,metabolite dCMP,-0.5224
same,Log2(fold change) of dCTP,metabolite dCTP,-0.4073
same,Log2(fold change) of dGDP/ADP,metabolite dGDP/ADP,-0.4184
same,Log2(fold change) of dGMP/AMP,metabolite dGMP/AMP,-0.2434
same,Log2(fold change) of dGTP/ATP,metabolite dGTP/ATP,-0.1490
same,Log2(fold change) of dTDP,metabolite dTDP,0.0000
same,Log2(fold change) of dTMP,metabolite dTMP,-0.1539
same,Log2(fold change) of dTTP,metabolite dTTP,-0.2628
same,Log2(fold change) of dUMP,metabolite dUMP,0.0000
same,Log2(fold change) of dUTP,metabolite dUTP,0.0000
same,Log2(fold change) of deoxyguanosine,metabolite deoxyguanosine,0.0000
same,Log2(fold change) of deoxyinosine,metabolite deoxyinosine,0.0000
same,Log2(fold change) of deoxyribose-phosphate,metabolite deoxyribose-phosphate,0.0000
same,Log2(fold change) of deoxyuridine,metabolite deoxyuridine,0.0000
same,Log2(fold change) of dihydroorotate,metabolite dihydroorotate,0.4231
same,Log2(fold change) of folate,metabolite folate,0.2103
same,Log2(fold change) of fructose-1-6-bisphosphate,metabolite fructose-1-6-bisphosphate,-0.0559
same,Log2(fold change) of fructose-6-phosphate,metabolite fructose-6-phosphate,0.0000
same,Log2(fold change) of fumarate,metabolite fumarate,-0.4743
same,Log2(fold change) of glucono-lactone,metabolite glucono-lactone,0.0000
same,Log2(fold change) of glucose-1/6-phosphate,metabolite glucose-1/6-phosphate,0.0000
same,Log2(fold change) of glutamate,metabolite glutamate,-0.2593
same,Log2(fold change) of glutamine,metabolite glutamine,0.1154
same,Log2(fold change) of glutathione,metabolite glutathione,-0.5102
same,Log2(fold change) glutathione disulfide,metabolite glutathione disulfide,-0.1758
same,Log2(fold change) glycerate,metabolite glycerate,0.0000
same,Log2(fold change) guanine,metabolite guanine,-0.4489
same,Log2(fold change) guanosine,metabolite guanosine,0.0000
same,Log2(fold change) histidine,metabolite histidine,0.2818
same,Log2(fold change) homocysteic acid,metabolite homocysteic acid,0.0000
same,Log2(fold change) hydroxyphenylpyruvate,metabolite hydroxyphenylpyruvate,0.0000
same,Log2(fold change) hydroxyproline/Aminolevulinate,metabolite hydroxyproline/Aminolevulinate,-0.0239
same,Log2(fold change) hypoxanthine,metabolite hypoxanthine,0.0610
same,Log2(fold change) indole,metabolite indole,0.8345
same,Log2(fold change) inosine,metabolite inosine,-0.1646
same,Log2(fold change) isoleucine,metabolite isoleucine,-0.1407
same,Log2(fold change) lactate,metabolite lactate,-0.4343
same,Log2(fold change) leucine,metabolite leucine,0.0081
same,Log2(fold change) lysine,metabolite lysine,0.0000
same,Log2(fold change) malate,metabolite malate,-0.4038
same,Log2(fold change) maleic acid,metabolite maleic acid,-0.3811
same,Log2(fold change) methionine,metabolite methionine,0.2971
same,Log2(fold change) myo-inositol,metabolite myo-inositol,0.0000
same,Log2(fold change) nicotinamide mononucleotide,metabolite nicotinamide mononucleotide,0.0000
same,Log2(fold change) nicotinate,metabolite nicotinate,-0.4667
same,Log2(fold change) ornithine,metabolite ornithine,0.0000
same,Log2(fold change) orotate,metabolite orotate,-0.1913
same,Log2(fold change) orotidine-5'-phosphate,metabolite orotidine-5'-phosphate,-0.1124
same,Log2(fold change) oxaloacetate,metabolite oxaloacetate,0.0000
same,Log2(fold change) p-aminobenzoate,metabolite p-aminobenzoate,0.0000
same,Log2(fold change) p-hydroxybenzoate,metabolite p-hydroxybenzoate,0.0000
same,Log2(fold change) pantothenate,metabolite pantothenate,-0.1562
same,Log2(fold change) phenylalanine,metabolite phenylalanine,-0.0454
same,Log2(fold change) phenylpyruvate,metabolite phenylpyruvate,0.0000
same,Log2(fold change) phosphoenolpyruvate,metabolite phosphoenolpyruvate,-0.1663
same,Log2(fold change) prephenate,metabolite prephenate,0.0000
same,Log2(fold change) proline,metabolite proline,-0.1446
same,Log2(fold change) pyridoxine,metabolite pyridoxine,0.0000
same,Log2(fold change) pyruvate,metabolite pyruvate,-0.5314
same,Log2(fold change) riboflavin,metabolite riboflavin,0.4707
same,Log2(fold change) ribose,metabolite ribose,0.0000
same,Log2(fold change) ribose-phosphate,metabolite ribose-phosphate,0.0000
same,Log2(fold change) ribulose-5-phosphate,metabolite ribulose-5-phosphate,-0.0752
same,Log2(fold change) serine,metabolite serine,0.2570
same,Log2(fold change) sn-glycerol-3-phosphate,metabolite sn-glycerol-3-phosphate,0.2730
same,Log2(fold change) succinate/Methylmalonic acid,metabolite succinate/Methylmalonic acid,-0.4610
same,Log2(fold change) succinyl-CoA/methylmalonyl-CoA,metabolite succinyl-CoA/methylmalonyl-CoA,-0.1003
same,Log2(fold change) taurine,metabolite taurine,0.0000
same,Log2(fold change) thiamine,metabolite thiamine,0.0000
same,Log2(fold change) threonine/homoserine,metabolite threonine/homoserine,0.2231
same,Log2(fold change) thymidine,metabolite thymidine,0.0000
same,Log2(fold changes) thymine,"metabolite thymine, log2 fold change",0.0000
same,Log2(fold changes) trehalose-6-Phosphate,"metabolite trehalose-6-Phosphate, log2 fold change",0.0000
same,Log2(fold changes) tryptophan,"metabolite tryptophan, log2 fold change",0.5432
same,Log2(fold changes) tyrosine,"metabolite tyrosine, log2 fold change",0.1420
same,Log2(fold changes) uridine,"metabolite uridine, log2 fold change",0.0000
same,Log2(fold changes) valine,"metabolite valine, log2 fold change",-0.1357
same,Log2(fold changes) xanthine,"metabolite xanthine, log2 fold change",0.0000
same,Log2(fold changes) xanthosine-5-phosphate,"metabolite xanthosine-5-phosphate, log2 fold change",-0.1792
same,Log2(fold changes) xanthosine,"metabolite xanthosine, log2 fold change",-1.8994
same,Log2(fold changes) xylose,"metabolite xylose, log2 fold change",0.0000
